Experimental data: paper PMC12147183, “Lacritin cleavage-potentiated targeting of iron - respiratory reciprocity promotes bacterial death” (The Journal of Biological Chemistry, 2025)
Peptide text beside a SMILES is read from it.

Assays:
P. aeruginosa PA14 = assay: N-104 sub-MIC generational resistance assay; format: cell-based, Pseudomonas aeruginosa; settings: PA14 treated at subminimal inhibitory and minimal inhibitory concentrations, n = 2
Procedure: Supplementary Fig. 2. Thirty generations of PA14 fail to develop stable N-104 resistance together with biological replicates related to Fig. 2. A, Schematic of the N-104 sub-minimal inhibitory concentration (‘sub-MIC’) N-104 resistant assay. […] . This process was repeated through 30 generations. B, Generational fold change of N-104 MIC over 30 generations. The original sub-MIC N-104 concentration was 2 µM, for which there was no initial sub-MIC change ([mean], n = 2, *p<0.05; ns, not significant [Friedman ANOVA with Dunn's multiple comparisons test]). C, Biological replicates of the N-104 sub-MIC resistant assay. Scale bar is 2 mm. […] Scale bar is 2 mm.

thrombin (F2) = thrombin (F2) (Homo sapiens, UniProt P00734); assay: Affinity pulldown of human tears on peptide columns; format: binding; settings: pooled human basal tears, 300 mOsm/l, 0.5 M KCl eluant, anti-F2 immunodetection
Procedure: Studies in this work abide by the Declaration of Helsinki principles. As per UVA IRB protocol 18,592, consented normal human volunteers were subjected to 0.5% proparacaine anesthesia of the eye to minimize reflex tearing. Human basal tears were then wicked for 5 min onto filter paper-like Schirmer strips. Those that had wicked a distance of at least 12 mm were subjected to 4 °C elution with 10 mM Na2HPO4, 1.8 mM KH2PO4, 2.7 mM KCl, 137 mM NaCl (pH 7.2) for a final total pooled tear volume of 170 μl. The pool was diluted five-fold in 10 mM Na2HPO4, 1.8 mM KH2PO4, 2.7 mM KCl, and 137 mM NaCl (pH 7.2) with protease inhibitors and subjected to end-over-end mixing with a 100 μl precolumn of Pierce Agarose followed by equal division by protein concentration into each of 100 μl of N-104 or C-95 columns. The solution was mixed for 5 h at 4 °C. Columns were subjected to washing with 10 mM Na2HPO4, 1.8 mM KH2PO4, 2.7 mM KCl, and 137 mM NaCl (pH 7.2) containing the same protease inhibitors followed by elution using KCl (0.3, 0.5, and 1.0 M KCl) in the same buffer. The 0.5 M KCl eluate was submitted for mass spectrometric sequencing by UVA's Biomolecular Analysis Facility, as previously noted. The acquired data were analyzed by database searching using the Sequest search algorithm against UniProt H. sapiens. […]

CC(=O)N[C@@H](C)C(=O)N[C@@H](CCC(N)=O)C(=O)N[C@@H](CCCCN)C(=O)N[C@@H](CC(C)C)C(=O)N[C@@H](CC(C)C)C(=O)N[C@@H](CCCCN)C(=O)N[C@@H](CCCCN)C(=O)N[C@@H](Cc1ccccc1)C(=O)N[C@@H](CO)C(=O)N[C@@H](CC(C)C)C(=O)N[C@@H](CC(C)C)C(=O)N[C@@H](CCCCN)C(=O)N1CCC[C@H]1C(=O)N[C@@H](Cc1c[nH]c2ccccc12)C(=O)N[C@@H](C)C(=O)O [N-104] (Ac-AQKLLKKFSLLKPWA-OH)
development of resistance over 30 successive generations (P. aeruginosa PA14): No stable resistance was apparent
binding of tear thrombin to immobilized peptide (thrombin (F2)): binds thrombin
